Like-named read-outs stand apart in the source and are kept apart here.
What was measured:
HepG2 cell = assay: Cellular lipid-lowering level detection (oleic acid-induced cellular hyperlipidemia model, triglyceride content); type: cell-based, human; conditions: HepG2 cells, drug treatment 24 h
Experimental: The lipid-lowering ability at the cellular level was confirmed by detecting triglyceride levels of hyperlipidemia cells to determine whether the compounds have the ability to improve hyperlipidemia at the cellular level (J. Med. Chem. 2021, 64(5), 2815-2828). This experiment adopted a human liver cancer cell, HepG2 cell. After a cellular hyperlipidemia model was induced by oleic acid, the cells were incubated and treated with a drug for 24 h. Then, the cells were lysed by ultrasonication, and the content of triglyceride was detected according to the instructions of a triglyceride kit.

FIH = FIH (Homo sapiens (Human), UniProt Q9NWT6); assay: Inhibitory activities of compounds on FIH, fluorescence polarization (FP assay); type: binding
FIH, sequence (Q9NWT6 whole entry): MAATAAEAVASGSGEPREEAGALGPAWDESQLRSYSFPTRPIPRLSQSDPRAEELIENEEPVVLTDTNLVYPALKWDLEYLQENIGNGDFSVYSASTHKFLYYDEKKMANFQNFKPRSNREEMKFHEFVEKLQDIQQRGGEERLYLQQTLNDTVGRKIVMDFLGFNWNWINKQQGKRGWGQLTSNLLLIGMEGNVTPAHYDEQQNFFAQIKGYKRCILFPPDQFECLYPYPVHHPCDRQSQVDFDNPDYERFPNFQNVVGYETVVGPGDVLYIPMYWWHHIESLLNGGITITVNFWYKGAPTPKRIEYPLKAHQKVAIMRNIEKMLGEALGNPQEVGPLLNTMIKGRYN
Experimental: The compounds were serially diluted in an assay buffer to 12 concentration gradients, and then 20 μL of diluted 300 nM FIH protein was added to each well. […] The plate was incubated at room temperature for 1 h and scanned with a Synergy plate reader. The excitation wavelength was set to 485 nm, and the emission wavelength was set to 535 nm. […] The obtained data were imported into Graphpad prism 8.0 for analysis and fit to obtain IC50 values.

[1] = FP competition with FITC-HIF-1α 788-822, Table 1, read-out: FIH IC50
[2] = Table 2, comparison compounds, read-out: FIH (IC50 nM), compound where position 5 of pyridine is linked to other structures

O=C(O)CNC(=O)c1ncc(-c2cccc(Cl)c2)cc1O [AKB-6548, reference compound]
Whether or not it can improve cellular hyperlipidemia (HepG2 cell): No

O=C(O)CNC(=O)c1ncc(-c2cc(-c3ccccc3)no2)cc1O [Compound I-1, 3-Hydroxy-5-(3-phenylisoxazol-5-yl)picolinoyl glycine]
Whether or not it can improve cellular hyperlipidemia (HepG2 cell): Yes

Cc1cccc(-c2cc(-c3cnc(C(=O)NCC(=O)O)c(O)c3)on2)c1 [Compound I-2, 3-Hydroxy-5-(3-m-tolylisoxazol-5-yl)picolinoyl glycine]
Whether or not it can improve cellular hyperlipidemia (HepG2 cell): Yes

O=C(O)CNC(=O)c1ncc(-c2cc(-c3ccc(-c4ccccc4)cc3)no2)cc1O [Compound I-3, 3-Hydroxy-5-(3-biphenylisoxazol-5-yl)picolinoyl glycine]
Whether or not it can improve cellular hyperlipidemia (HepG2 cell): Yes

COc1cccc(-c2cc(-c3cnc(C(=O)NCC(=O)O)c(O)c3)on2)c1 [Compound I-4, 3-Hydroxy-5-(3-m-methoxyphenylisoxazol-5-yl)picolinoyl glycine]
Whether or not it can improve cellular hyperlipidemia (HepG2 cell): Yes

O=C(O)CNC(=O)c1ncc(-c2cc(-c3cccc(Cl)c3)no2)cc1O [Compound I-5, 3-Hydroxy-5-(3-m-chlorophenylisoxazol-5-yl)picolinoyl glycine]
Whether or not it can improve cellular hyperlipidemia (HepG2 cell): Yes

O=C(O)CNC(=O)c1ncc(-c2cc(-c3cccc(Br)c3)no2)cc1O [Compound I-6, 3-Hydroxy-5-(3-m-bromophenylisoxazol-5-yl)picolinoyl glycine]
Whether or not it can improve cellular hyperlipidemia (HepG2 cell): Yes

O=C(O)CNC(=O)c1ncc(-c2cc(C3CCCCC3)no2)cc1O [Compound I-7, 3-Hydroxy-5-(3-cyclohexylisoxazol-5-yl)picolinoyl glycine]
Whether or not it can improve cellular hyperlipidemia (HepG2 cell): Yes

O=C(O)CNC(=O)c1ncc(-c2cc(C3CC3)no2)cc1O [Compound I-8, 3-Hydroxy-5-(3-cyclopropylisoxazol-5-yl)picolinoyl glycine]
Whether or not it can improve cellular hyperlipidemia (HepG2 cell): Yes

N#Cc1cccc(-c2cc(-c3cnc(C(=O)NCC(=O)O)c(O)c3)on2)c1 [Compound I-9, 3-Hydroxy-5-(3-m-cyanophenylisoxazol-5-yl)picolinoyl glycine]
Whether or not it can improve cellular hyperlipidemia (HepG2 cell): Yes

O=C(O)CNC(=O)c1ncc(-c2cc(-c3cccc(C(F)(F)F)c3)no2)cc1O [Compound I-10, 3-Hydroxy-5-(3-m-trifluoromethylphenylisoxazol-5-yl)picolinoyl glycine]
Whether or not it can improve cellular hyperlipidemia (HepG2 cell): Yes

O=C(O)CNC(=O)c1ncc(-c2cc(-c3cccc4ccccc34)no2)cc1O [Compound I-11, 3-Hydroxy-5-(3-(naphthyl-1-yl)isoxazol-5-yl)picolinoyl glycine]
Whether or not it can improve cellular hyperlipidemia (HepG2 cell): Yes

O=C(O)CNC(=O)c1ncc(-c2cc(-c3ccc4ccccc4c3)no2)cc1O [Compound I-12, 3-Hydroxy-5-(3-(naphthyl-2-yl)isoxazol-5-yl)picolinoyl glycine]
Whether or not it can improve cellular hyperlipidemia (HepG2 cell): Yes

Cc1ccccc1-c1cc(-c2cnc(C(=O)NCC(=O)O)c(O)c2)on1 [Compound I-13, 3-Hydroxy-5-(3-o-tolylisoxazol-5-yl)picolinoyl glycine]
Whether or not it can improve cellular hyperlipidemia (HepG2 cell): Yes

Cc1ccc(-c2cc(-c3cnc(C(=O)NCC(=O)O)c(O)c3)on2)cc1 [Compound I-14, 3-Hydroxy-5-(3-p-tolylisoxazol-5-yl)picolinoyl glycine]
Whether or not it can improve cellular hyperlipidemia (HepG2 cell): Yes

Cc1cc(C)cc(-c2cc(-c3cnc(C(=O)NCC(=O)O)c(O)c3)on2)c1 [Compound I-15, 3-Hydroxy-5-(3-m-dimethylphenylisoxazol-5-yl)picolinoyl glycine]
Whether or not it can improve cellular hyperlipidemia (HepG2 cell): Yes

O=C(O)CNC(=O)c1ncc(-c2cc(-c3cccc(F)c3)no2)cc1O [Compound I-16, 3-Hydroxy-5-(3-m-fluorophenylisoxazol-5-yl)picolinoyl glycine]
Whether or not it can improve cellular hyperlipidemia (HepG2 cell): Yes

O=C(O)CNC(=O)c1ncc(-c2cc(-c3ccccc3Cl)no2)cc1O [Compound I-17, 3-Hydroxy-5-(3-o-chlorophenylisoxazol-5-yl)picolinoyl glycine]
Whether or not it can improve cellular hyperlipidemia (HepG2 cell): Yes

O=C(O)CNC(=O)c1ncc(-c2cc(-c3ccc(Cl)cc3)no2)cc1O [Compound I-18, 3-Hydroxy-5-(3-p-chlorophenylisoxazol-5-yl)picolinoyl glycine]
Whether or not it can improve cellular hyperlipidemia (HepG2 cell): Yes

O=C(O)CNC(=O)c1ncc(-c2cc(-c3cc(Cl)cc(Cl)c3)no2)cc1O [Compound I-19, 3-Hydroxy-5-(3-m-dichlorophenylisoxazol-5-yl)picolinoyl glycine]
Whether or not it can improve cellular hyperlipidemia (HepG2 cell): Yes

O=C(O)CNC(=O)c1ncc(-c2cc(-c3ccccc3Br)no2)cc1O [Compound I-20, 3-Hydroxy-5-(3-o-bromophenylisoxazol-5-yl)picolinoyl glycine]
Whether or not it can improve cellular hyperlipidemia (HepG2 cell): Yes

O=C(O)CNC(=O)c1ncc(-c2cc(-c3ccc(Br)cc3)no2)cc1O [Compound I-21, 3-Hydroxy-5-(3-p-bromophenylisoxazol-5-yl)picolinoyl glycine]
Whether or not it can improve cellular hyperlipidemia (HepG2 cell): Yes

O=C(O)CNC(=O)c1ncc(-c2cc(-c3ccccc3C(F)(F)F)no2)cc1O [Compound I-22, 3-Hydroxy-5-(3-o-trifluoromethylphenylisoxazol-5-yl)picolinoyl glycine]
Whether or not it can improve cellular hyperlipidemia (HepG2 cell): Yes

O=C(O)CNC(=O)c1ncc(-c2cc(-c3ccc(C(F)(F)F)cc3)no2)cc1O [Compound I-23, 3-Hydroxy-5-(3-p-trifluoromethylphenylisoxazol-5-yl)picolinoyl glycine]
Whether or not it can improve cellular hyperlipidemia (HepG2 cell): Yes

O=C(O)CNC(=O)c1ncc(-c2cc(-c3ccccc3F)no2)cc1O [Compound I-24, 3-Hydroxy-5-(3-o-fluorophenylisoxazol-5-yl)picolinoyl glycine]
IC50 (FIH; [1]): 799 ± 8.6 nM
Whether or not it can improve cellular hyperlipidemia (HepG2 cell): Yes

O=C(O)CNC(=O)c1ncc(-c2cc(-c3ccc(F)cc3)no2)cc1O [Compound I-25, 3-Hydroxy-5-(3-p-fluorophenylisoxazol-5-yl)picolinoyl glycine]
IC50 (FIH; [1]): 540 ± 1.8 nM
Whether or not it can improve cellular hyperlipidemia (HepG2 cell): Yes

O=C(O)CNC(=O)c1ncc(-c2cc(-c3cc(F)cc(F)c3)no2)cc1O [Compound I-26, 3-Hydroxy-5-(3-m-difluorophenylisoxazol-5-yl)picolinoyl glycine]
Whether or not it can improve cellular hyperlipidemia (HepG2 cell): Yes

CC(C)(C)c1cccc(-c2cc(-c3cnc(C(=O)NCC(=O)O)c(O)c3)on2)c1 [Compound I-27, 3-Hydroxy-5-(3-m-tert-butylphenylisoxazol 5-yl)picolinoyl glycine]
IC50 (FIH; [1]): 782 ± 9.6 nM
Whether or not it can improve cellular hyperlipidemia (HepG2 cell): Yes

Cc1nc(C(=O)NCC(=O)O)c(O)cc1-c1cc(-c2ccccc2)no1 [Compound I-28, 3-Hydroxy-5-(3-phenylisoxazol-5-yl)-6-methylpicolinoyl glycine]
IC50 (FIH; [1]): 991 ± 12.3 nM
Whether or not it can improve cellular hyperlipidemia (HepG2 cell): Yes

Cc1c(-c2ccccc2)noc1-c1cnc(C(=O)NCC(=O)O)c(O)c1 [Compound I-29, 3-Hydroxy-5-(4-methyl-3-phenylisoxazol-5-yl)picolinoyl glycine]
IC50 (FIH; [1]): 1010 ± 25.1 nM
Whether or not it can improve cellular hyperlipidemia (HepG2 cell): Yes

CC(C)(C)c1c(-c2ccccc2)noc1-c1cnc(C(=O)NCC(=O)O)c(O)c1 [Compound I-30, 3-Hydroxy-5-(4-tert-butyl-3-phenylisoxazol-5-yl)picolinoyl glycine]
IC50 (FIH; [1]): 1210 ± 22.9 nM
Whether or not it can improve cellular hyperlipidemia (HepG2 cell): Yes

O=C(O)CNC(=O)c1ncc(-c2onc(-c3ccccc3)c2C2CC2)cc1O [Compound I-31, 3-Hydroxy-5-(4-cyclopropyl-3-phenylisoxazol-5-yl)picolinoyl glycine]
IC50 (FIH; [1]): 1920 ± 14.5 nM
Whether or not it can improve cellular hyperlipidemia (HepG2 cell): Yes

O=C(O)CNC(=O)c1ncc(-c2onc(-c3ccccc3)c2C2CCCCC2)cc1O [Compound I-32, 3-Hydroxy-5-(4-cyclohexyl-3-phenylisoxazol-5-yl) picolinoyl glycine]
IC50 (FIH; [1]): 998 ± 10.9 nM
Whether or not it can improve cellular hyperlipidemia (HepG2 cell): Yes

O=C(O)CNC(=O)c1ncc(-c2onc(-c3ccccc3)c2-c2ccccc2)cc1O [Compound I-33, 3-Hydroxy-5-(3,4-diphenylisoxazol-5-yl)picolinoyl glycine]
IC50 (FIH; [1]): 787 ± 9.5 nM
Whether or not it can improve cellular hyperlipidemia (HepG2 cell): Yes

O=C(O)CNC(=O)c1ncc(-c2cn(-c3ccccc3)nn2)cc1O [reference compound]
IC50 (FIH; [2]): 19590 ± 43.8 nM

O=C(O)CNC(=O)c1ncc(-c2cc(-c3ccccc3)co2)cc1O [reference compound]
IC50 (FIH; [2]): 9024 ± 36.1 nM

O=C(O)CNC(=O)c1ncc(-c2cc(-c3ccccc3)n[nH]2)cc1O [reference compound]
IC50 (FIH; [2]): 22250 ± 56.3 nM
